According to patent US20210316010A1, “DRUG DELIVERY PRODUCT, COMPOSITION AND SYSTEM” (MASTER DYNAMIC LIMITED, priority 2018, published 2021):

Columns and labels:
[1] = test system: SAS cells; experiment: Monolayer 2D SAS cellular uptake, confocal laser scanning microscopy; assay type: cell-based, Human; conditions: 4 hrs incubation, DOX 20 μg/ml
Excerpt: Intracellular trafficking and distribution of DOX within SAS cells were used to further investigate the outcomes, by using confocal laser scanning microscopy (CLSM), as shown in the images of FIGS. 21 and 21I.
The 50 nm ND fluorescence was excited with 488 nm, and collected in range 500-515 nm. The ND's fluorescence in this range corresponds predominantly to emission from diamond H^3 defect centers with emission peak near 505 nm, shown as green colour 206. The bright fields as evidenced, were also provided to reveal the morphologies of SAS cells.
Human Oral Squamous Carcinoma cell (SAS) cells were cultured in DMEM medium (Gibco, Invitrogen, UK). The medium was supplemented with 2 mM L-glutamine (Invitrogen, USA), 1.5 g/L sodium bicarbonate (Sigma, UK), 10% fetal bovine serum (Gibco/Life Technologies, Carlsbad, Calif., USA).
Cells were maintained under standard cell culture conditions in an incubator (Galaxy 170S, Eppendorf, USA) containing 95% air and 5% CO2 at 37° C. humid environment.
Culture medium was replaced with a fresh medium every 48 or 72 hr. […]
Unreacted samples were removed by washing. […] The emission of DOX was absorbed at 570-590 nm and ND was detected at 500-515 nm.

[2] = test system: SAS MCTS; experiment: Penetration and distribution in SAS multicellular tumor spheroids (MCTS), confocal microscopy; assay type: cell-based, Human; conditions: after 1 day of incubation
Experimental: In order to investigate the penetration of DOX with different formulations (ND-DOX and ND-HSA-DOX) in tissue model in vitro, SAS MCTS were used to incubate with ND, free DOX, ND-DOX and ND-HSA-DOX.
The ND and DOX with different formulations complex uptake and distribution in SAS MCTS model was monitored by using CLSM.
The cell nuclei were stained with Hoechst […] which emits blue fluorescence (440 nm-484 nm), cell membrane were dyed with 3,3′-dipentyloxacarbocyanine iodide (DIOC'5), and the signal was collected in the 520-555 nm range, shown in red color.
In order to promote the multicellular tumor spheroids (MCTS) formation, SAS cells were seeded in Gravity TRAP ULA Plate, by Insphero, at a density of 5,000 cells per well and cultured at 37° C. with 5% CO2 for 3 days before drug treatment.
For the distributions of ND, DOX, ND-DOX and ND-HSA-DOX within MCTS were determined by confocal laser microscopy.
SAS MCTS were treated with ND, DOX, ND-DOX and ND-HSA-DOX for 4 days. Each day, one of treatment MCTS was harvested and fixed with 3.7% formaldehyde for 24 h. Washing the MCTS 3 time with PBS, and MCTS was incubated with DIOC'5 for 24 h. After washing 3 times, Hoechst 33342 was incubated with MCTS for 24 h. Then MCTS was observed by confocal microscopy.

[3] = test system: HeLa cells; conditions: treatment for 5 h; cited from earlier work

Q: For COc1cccc2c1C(=O)c1c(O)c3c(c(O)c1C2=O)C[C@@](O)(C(=O)CO)C[C@@H]3O[C@H]1C[C@H](N)[C@H](O)[C@H](C)O1.Cl [DOX, doxorubicin hydrochloride], which “intracellular distribution of DOX” value [1] is on record?
A: distributed on cytoplasm

Q: What about the “penetration in SAS MCTS” value [2] of the same compound?
A: limited to the outer cell layers

Q: What about the “intracellular location of DOX” value [3] of the same compound?
A: located in nuclear of HeLa cells
